Measurements taken from paper PMC8007718, “A prostate-specific membrane antigen (PSMA)-targeted prodrug with a favorable in vivo toxicity profile” (Scientific Reports, 2021).
*1 amine or outer side, *2 acyl side, *3 side chain or, on linkers, in order; H or OH if unused. Where a SMILES comes first, the peptide text is derived from it. [ ]: non-standard residue; d: D form. The star is where a group is joined. X1 = O=C(O)CC[C@H](NC(=O)N[C@@H](CCCCNC(=O)CCCCCCC(=O)*)C(=O)O)C(=O)O; Dolaproine = CO[C@@H]([C@@H]1CCCN1)[C@@H](C)C(=O)O; Dil = CC[C@H](C)[C@H](NC)[C@@H](CC(=O)O)OC; PABC = O=C(OCc1ccc(N[*:1])cc1)[*:2]; X2 = C[C@@H](N*)[C@@H](O)c1ccccc1; Cit = NC(=O)NCCC[C@H](N)C(=O)O; NMeV = CN[C@H](C(=O)O)C(C)C

Target: T1, cathepsin B (Homo sapiens, UniProt P07858)
T1 construct: gene CTSB; recombinant cathepsin B
Test: cleavage by recombinant cathepsin B followed by HPLC (MMAE release)
Format: biochemical

CC[C@H](C)[C@@H]([C@@H](CC(=O)N1CCC[C@H]1[C@H](OC)[C@@H](C)C(=O)N[C@H](C)[C@@H](O)c1ccccc1)OC)N(C)C(=O)[C@@H](NC(=O)[C@H](C(C)C)N(C)C(=O)OCc1ccc(NC(=O)[C@H](CCCNC(N)=O)NC(=O)[C@@H](NC(=O)CCCCCCC(=O)NCCCC[C@H](NC(=O)N[C@@H](CCC(=O)O)C(=O)O)C(=O)O)C(C)C)cc1)C(C)C [SBPD-1, (6S,9S,24S,28S)-1-amino-6-((4-((5S,8S,11S)-11-((S)-sec-butyl)-12-(2-((S)-2-((1R,2R)-3-(((1S,2R)-1-hydroxy-1-phenylpropan-2-yl)amino)-1-methoxy-2-methyl-3-oxopropyl)pyrrolidin-1-yl)-2-oxoethyl)-5,8-diisopropyl-4,10-dimethyl-3,6,9-trioxo-2,13-dioxa-4,7,10-triazatetradecyl)phenyl)carbamoyl)-9-isopropyl-1,8,11,18,26-pentaoxo-2,7,10,19,25,27-hexaazatriacontane-24,28,30-tricarboxylic acid] (X1-V[Cit][PABC][NMeV]V[Dil][Dolaproine]-X2)
metabolised at 3 h: 80%
